{"source": "patent US20170247693A1", "about": "(priority 2016, published 2017)", "key": {"caspase-3 [1]": {"system": "caspase-3", "assay_type": "cell-based, human", "settings": "HepG2 infected with vACE-NT; normoxia; 72 h after administering DOX"}, "caspase-3 [2]": {"system": "caspase-3", "assay_type": "cell-based", "settings": "FLC4 infected with vACE-NT; normoxia; 72 h after administering DOX"}, "[3]": {"system": "uveal melanoma cells (Mel270, OMM2.3, OMM2.5, OMM1, 92.1)", "assay_type": "cell-based"}, "HepG2 tumors": {"system": "HepG2 tumors", "assay_type": "in vivo, SCID mice"}}, "note": "Read-outs that look alike come from different tables or passages of the source."}
{"smiles": "COc1cccc2c1C(=O)c1c(O)c3c(c(O)c1C2=O)C[C@@](O)(C(=O)CO)C[C@@H]3O[C@H]1C[C@H](N)[C@H](O)[C@H](C)O1", "note": "[DOX, Doxorubicin]", "values": [{"measurement": "increase of caspase-3 activation", "setting": "caspase-3 [1]", "value": 35, "unit": "fold"}, {"measurement": "increase of caspase-3 activation", "setting": "caspase-3 [2]", "value": 12, "unit": "fold"}, {"measurement": "cell death in uveal melanoma cells", "setting": "[3]", "value": "induce cell death"}, {"measurement": "reduction of tumor growth rate", "setting": "HepG2 tumors; DOX 55 mg/kg IP twice a week, tumors infected with vACE-NT, light emission day 42 vs day 14", "value": 45, "unit": "%"}, {"measurement": "effect on tumors", "setting": "HepG2 tumors; DOX 75 mg/kg IP twice a week, even in vACE-NT infected tumors", "value": "almost completely eradicate the tumors"}, {"measurement": "growth rate of tumors on addition of DOX", "setting": "HepG2 tumors; all tumors (vACE-NT, vACE-CREB, vACE-X3 infected), DOX 55 mg/kg", "value": "reduced the growth rate of all tumors"}]}
